From ChEMBL document CHEMBL4028827, “Discovery of indazole aldosterone synthase (CYP11B2) inhibitors as potential treatments for hypertension” (Bioorg Med Chem Lett, 2017)

Key:
[1] = target: T1, Cytochrome P450 11B1, mitochondrial (Homo sapiens, UniProt P15538); assay: Inhibition of human CYP11B1-8C7 expressed in Chinese hamster V79 cells using 11-deoxycortisol as substrate preincubated for 1 hr followed by substrate addition measured for 3 hrs by HTRF assay; type: ADME, cell-based
T1 sequence (P15538 whole entry): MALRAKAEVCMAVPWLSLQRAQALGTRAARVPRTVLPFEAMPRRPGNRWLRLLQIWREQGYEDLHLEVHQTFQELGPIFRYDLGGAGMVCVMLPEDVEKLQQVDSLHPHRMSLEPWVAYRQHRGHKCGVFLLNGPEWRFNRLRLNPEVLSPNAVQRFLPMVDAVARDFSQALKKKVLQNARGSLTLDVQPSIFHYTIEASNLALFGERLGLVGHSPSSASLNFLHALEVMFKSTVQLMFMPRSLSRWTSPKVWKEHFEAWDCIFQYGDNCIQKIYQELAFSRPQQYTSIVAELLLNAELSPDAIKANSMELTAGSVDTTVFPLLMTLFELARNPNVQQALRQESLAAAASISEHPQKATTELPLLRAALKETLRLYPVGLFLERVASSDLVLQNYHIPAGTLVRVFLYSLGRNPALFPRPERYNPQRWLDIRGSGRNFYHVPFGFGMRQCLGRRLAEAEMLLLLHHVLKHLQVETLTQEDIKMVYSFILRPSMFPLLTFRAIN

[2] = target: T2, Cytochrome P450 11B2, mitochondrial (Rattus norvegicus, UniProt P30099); assay: Inhibition of rat CYP11B2-1F4 expressed in Chinese hamster V79 cells using 11-deoxycorticosterone as substrate preincubated for 1 hr followed by substrate addition measured for 3 hrs by HTRF assay; type: cell-based
T2 sequence (P30099 whole entry): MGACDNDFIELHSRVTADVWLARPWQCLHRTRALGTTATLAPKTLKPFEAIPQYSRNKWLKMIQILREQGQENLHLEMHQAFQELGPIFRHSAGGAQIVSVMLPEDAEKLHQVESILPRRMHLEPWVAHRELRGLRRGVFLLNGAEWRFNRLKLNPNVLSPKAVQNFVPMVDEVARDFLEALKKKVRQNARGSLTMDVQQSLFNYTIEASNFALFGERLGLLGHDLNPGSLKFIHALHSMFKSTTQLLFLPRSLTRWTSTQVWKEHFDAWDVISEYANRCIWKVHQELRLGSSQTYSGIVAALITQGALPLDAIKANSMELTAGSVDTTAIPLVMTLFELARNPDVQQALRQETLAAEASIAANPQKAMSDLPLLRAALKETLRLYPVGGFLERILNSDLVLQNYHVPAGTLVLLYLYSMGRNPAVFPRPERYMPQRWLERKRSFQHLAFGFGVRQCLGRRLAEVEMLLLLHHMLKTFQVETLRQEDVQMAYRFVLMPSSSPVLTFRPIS

[3] = target: Cytochrome P450 2D6 (Homo sapiens, UniProt P10635); assay: Inhibition of hepatic CYP2D6 (unknown origin); type: ADME
[4] = Half life in Sprague-Dawley rat at 1 mg/kg, iv or 2 mg/kg, po administered via gavage by LC-MS/MS analysis; type: ADME, organism-based; details: in vivo
[5] = Selectivity ratio of IC50 for hepatic CYP2D6 (unknown origin) to IC50 for human CYP11B2-CLE9 expressed in Chinese hamster V79 cells
[6] = Oral bioavailability in Sprague-Dawley rat at 2 mg/kg administered via gavage by LC-MS/MS analysis; type: ADME, organism-based; details: in vivo
[7] = Selectivity ratio of IC50 for hepatic CYP2C9 (unknown origin) to IC50 for human CYP11B2-CLE9 expressed in Chinese hamster V79 cells

Sequence of Cytochrome P450 2D6 (P10635 whole entry): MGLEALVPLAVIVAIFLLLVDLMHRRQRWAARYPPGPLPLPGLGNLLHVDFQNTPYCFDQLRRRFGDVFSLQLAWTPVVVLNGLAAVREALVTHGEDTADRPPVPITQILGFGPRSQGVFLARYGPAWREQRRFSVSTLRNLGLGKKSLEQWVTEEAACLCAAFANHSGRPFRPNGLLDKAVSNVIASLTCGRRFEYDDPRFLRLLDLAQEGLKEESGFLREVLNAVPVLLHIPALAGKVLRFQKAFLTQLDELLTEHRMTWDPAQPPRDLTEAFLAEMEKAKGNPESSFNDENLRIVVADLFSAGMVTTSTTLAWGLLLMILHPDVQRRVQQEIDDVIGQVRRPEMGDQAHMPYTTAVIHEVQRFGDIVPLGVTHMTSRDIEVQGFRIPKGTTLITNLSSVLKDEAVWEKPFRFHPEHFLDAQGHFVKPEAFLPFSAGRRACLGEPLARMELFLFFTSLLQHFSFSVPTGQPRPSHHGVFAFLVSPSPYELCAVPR

## CC(C)(O)c1cncc(-n2ncc3c(C(F)(F)F)cccc32)c1
[1]
  IC50: 98 to 98.3 nM
[2]
  IC50: 2.2 nM
[3]
  IC50: 2800 nM
[4]
  half-life: 7.6 h
[5]
  Ratio IC50: >1000
[6]
  bioavailability: 28%
[7]
  Ratio IC50: >4000
